Marks after values point to notes of the source that are not given here.
Key:
[1] = system: Salmonella typhimurium TA100; experiment: Ames test (reverse mutation test), TA100; conditions: for Number of revertant colonies: TA100; for Number of revertant colonies TA100: S9 Mix +, mean number of each plate
Protocol: (§1) Metabolites 1, 3, and 5 and Metabolites C to H were each tested herein. The purpose of this test is to evaluate the potential of each metabolite to induce reverse mutations in the standard strains of Salmonella typhimurium (TA98, TA1537, TA100, and TA1535) and Escherichia coli (WP2uvrA), in either the presence or absence of a rat liver metabolic activation system (S9 mix).
(§2) The solvent used herein was dimethyl sulfoxide (DMSO, 100 μL/plate).
(§3) The test was performed by the pre-incubation method with or without S9 mix. When the test was performed without S9 mix, sodium phosphate buffer solution (pH 7.4) was added.
(§4) 0.5 mL of S9 mix or 0.5 mL of 0.1 mol/L sodium phosphate buffer solution (pH 7.4), and 0.1 mL of the bacterial culture solution were added to a test tube containing 0.1 mL of the negative control formulation (DMSO alone), the metabolite, or the positive control formulation. The mixtures were pre-incubated at 37° C. for 20 minutes while shaking. After the pre-incubation period, 2 mL of top agar were added and the mixtures were vortex-mixed and seeded onto plates. Two plates per treatment were used. Each plate was incubated at 37±1° C. for 48 hours or more and the revertant colonies were counted. The mean number of revertant colonies for each treatment plate was then calculated. […] Evaluation was based on mean values with no statistical comparisons being used.

Escherichia coli WP2uvrA = experiment: Ames test (reverse mutation test), WP2uvrA; format: cell-based; conditions: for Number of revertant colonies: WP2uvrA; for Number of revertant colonies WP2uvrA: S9 Mix +, mean number of each plate
[2] = system: Salmonella typhimurium TA1535; experiment: Ames test (reverse mutation test), TA1535
Protocol: as §1, §2, §3, §4

[3] = system: Salmonella typhimurium TA1537; experiment: Ames test (reverse mutation test), TA1537; conditions: for Number of revertant colonies: TA1537; for Number of revertant colonies TA1537: S9 Mix +, mean number of each plate
Protocol: as §1, §2, §3, §4

[4] = system: Salmonella typhimurium TA98; experiment: Ames test (reverse mutation test), TA98; conditions: for Number of revertant colonies: TA98; for Number of revertant colonies TA98: S9 Mix +, mean number of each plate
Protocol: as §1, §2, §3, §4

## Nc1cc(-c2cc(F)cc(OC(F)(F)F)c2)n(-c2cncc(F)c2)n1 [Metabolite 3]
[1]; S9 mix +, 6.9 μg/plate
  Number of revertant colonies: 109
[1]; S9 mix +, 21 μg/plate
  Number of revertant colonies: 119
[1]; S9 mix +, 62 μg/plate
  Number of revertant colonies: 118
[1]; S9 mix +, 185 μg/plate
  Number of revertant colonies: 125
[1]; S9 mix +, 556 μg/plate
  Number of revertant colonies: 115*†
[1]; S9 mix +, 1667 μg/plate
  Number of revertant colonies: 97*†
[1]; S9 mix +, 5000 μg/plate
  Number of revertant colonies: 92*†
[1]; S9 mix −, 6.9 μg/plate
  Number of revertant colonies: 89
[1]; S9 mix −, 21 μg/plate
  Number of revertant colonies: 90
[1]; S9 mix −, 62 μg/plate
  Number of revertant colonies: 87
[1]; S9 mix −, 185 μg/plate
  Number of revertant colonies: 86
[1]; S9 mix −, 556 μg/plate
  Number of revertant colonies: 6*
[1]; S9 mix −, 1667 μg/plate
  Number of revertant colonies: 5*†
[1]; S9 mix −, 5000 μg/plate
  Number of revertant colonies: 5*†
Escherichia coli WP2uvrA; S9 mix +, 6.9 μg/plate
  Number of revertant colonies: 19
Escherichia coli WP2uvrA; S9 mix +, 21 μg/plate
  Number of revertant colonies: 19
Escherichia coli WP2uvrA; S9 mix +, 62 μg/plate
  Number of revertant colonies: 19
Escherichia coli WP2uvrA; S9 mix +, 185 μg/plate
  Number of revertant colonies: 19
Escherichia coli WP2uvrA; S9 mix +, 556 μg/plate
  Number of revertant colonies: 17*
Escherichia coli WP2uvrA; S9 mix +, 1667 μg/plate
  Number of revertant colonies: 14*†
Escherichia coli WP2uvrA; S9 mix +, 5000 μg/plate
  Number of revertant colonies: 9*†
Escherichia coli WP2uvrA; S9 mix −, 6.9 μg/plate
  Number of revertant colonies: 21
Escherichia coli WP2uvrA; S9 mix −, 21 μg/plate
  Number of revertant colonies: 16
Escherichia coli WP2uvrA; S9 mix −, 62 μg/plate
  Number of revertant colonies: 23
Escherichia coli WP2uvrA; S9 mix −, 185 μg/plate
  Number of revertant colonies: 20
Escherichia coli WP2uvrA; S9 mix −, 556 μg/plate
  Number of revertant colonies: 16*
Escherichia coli WP2uvrA; S9 mix −, 1667 μg/plate
  Number of revertant colonies: 13*†
Escherichia coli WP2uvrA; S9 mix −, 5000 μg/plate
  Number of revertant colonies: 8*†
[2]; S9 mix +, 6.9 μg/plate
  Number of revertant colonies: 8
[2]; S9 mix +, 21 μg/plate
  Number of revertant colonies: 9
[2]; S9 mix +, 62 μg/plate
  Number of revertant colonies: 11
[2]; S9 mix +, 185 μg/plate
  Number of revertant colonies: 9
[2]; S9 mix +, 556 μg/plate
  Number of revertant colonies: 4*
[2]; S9 mix +, 1667 μg/plate
  Number of revertant colonies: 3*†
[2]; S9 mix +, 5000 μg/plate
  Number of revertant colonies: 1*†
[2]; S9 mix −, 6.9 μg/plate
  Number of revertant colonies: 9
[2]; S9 mix −, 21 μg/plate
  Number of revertant colonies: 11
[2]; S9 mix −, 62 μg/plate
  Number of revertant colonies: 10
[2]; S9 mix −, 185 μg/plate
  Number of revertant colonies: 8
[2]; S9 mix −, 556 μg/plate
  Number of revertant colonies: 8*
[2]; S9 mix −, 1667 μg/plate
  Number of revertant colonies: 0*†
[2]; S9 mix −, 5000 μg/plate
  Number of revertant colonies: 0*†
[3]; S9 mix +, 6.9 μg/plate
  Number of revertant colonies: 12
[3]; S9 mix +, 21 μg/plate
  Number of revertant colonies: 13
[3]; S9 mix +, 62 μg/plate
  Number of revertant colonies: 12
[3]; S9 mix +, 185 μg/plate
  Number of revertant colonies: 12
[3]; S9 mix +, 556 μg/plate
  Number of revertant colonies: 8*
[3]; S9 mix +, 1667 μg/plate
  Number of revertant colonies: 0*†
[3]; S9 mix +, 5000 μg/plate
  Number of revertant colonies: 1*†
[3]; S9 mix −, 6.9 μg/plate
  Number of revertant colonies: 9
[3]; S9 mix −, 21 μg/plate
  Number of revertant colonies: 8
[3]; S9 mix −, 62 μg/plate
  Number of revertant colonies: 8
[3]; S9 mix −, 185 μg/plate
  Number of revertant colonies: 8
[3]; S9 mix −, 556 μg/plate
  Number of revertant colonies: 3*
[3]; S9 mix −, 1667 μg/plate
  Number of revertant colonies: 3*†
[3]; S9 mix −, 5000 μg/plate
  Number of revertant colonies: 2*†
[4]; S9 mix +, 6.9 μg/plate
  Number of revertant colonies: 35
[4]; S9 mix +, 21 μg/plate
  Number of revertant colonies: 37
[4]; S9 mix +, 62 μg/plate
  Number of revertant colonies: 35
[4]; S9 mix +, 185 μg/plate
  Number of revertant colonies: 36
[4]; S9 mix +, 556 μg/plate
  Number of revertant colonies: 22*
[4]; S9 mix +, 1667 μg/plate
  Number of revertant colonies: 20*†
[4]; S9 mix +, 5000 μg/plate
  Number of revertant colonies: 16*†
[4]; S9 mix −, 6.9 μg/plate
  Number of revertant colonies: 30
[4]; S9 mix −, 21 μg/plate
  Number of revertant colonies: 30
[4]; S9 mix −, 62 μg/plate
  Number of revertant colonies: 28
[4]; S9 mix −, 185 μg/plate
  Number of revertant colonies: 28
[4]; S9 mix −, 556 μg/plate
  Number of revertant colonies: 12*
[4]; S9 mix −, 1667 μg/plate
  Number of revertant colonies: 9*†
[4]; S9 mix −, 5000 μg/plate
  Number of revertant colonies: 7*†

## Nc1cc(-c2cc(F)cc(OC(F)(F)F)c2)n(-c2cncc(C(F)(F)F)c2)n1 [Metabolite 5]
[2]; S9 mix +, 185 μg/plate
  Number of revertant colonies: 9
[2]; S9 mix −, 6.9 μg/plate
  Number of revertant colonies: 9
[2]; S9 mix −, 556 μg/plate
  Number of revertant colonies: 6

## CC(C)(OCc1cc(F)cc(-c2cc(N)nn2-c2ccc(F)cc2)c1)C(F)(F)F [Metabolite D, reference compound]
[1]; dose 2.3 μg/plate
  Number of revertant colonies TA100: 139
[1]; dose 6.9 μg/plate
  Number of revertant colonies TA100: 203
[1]; dose 21 μg/plate
  Number of revertant colonies TA100: 237
[1]; dose 62 μg/plate
  Number of revertant colonies TA100: 185
[1]; dose 185 μg/plate
  Number of revertant colonies TA100: 151
[1]; dose 556 μg/plate
  Number of revertant colonies TA100: 119
[1]; dose 1667 μg/plate
  Number of revertant colonies TA100: 100
Escherichia coli WP2uvrA; dose 2.3 μg/plate
  Number of revertant colonies WP2uvrA: 31
Escherichia coli WP2uvrA; dose 21 μg/plate
  Number of revertant colonies WP2uvrA: 24
Escherichia coli WP2uvrA; dose 185 μg/plate
  Number of revertant colonies WP2uvrA: 23
Escherichia coli WP2uvrA; dose 556 μg/plate
  Number of revertant colonies WP2uvrA: 32
Escherichia coli WP2uvrA; dose 1667 μg/plate
  Number of revertant colonies WP2uvrA: 28
Escherichia coli WP2uvrA; dose 5000 μg/plate
  Number of revertant colonies WP2uvrA: 28
[3]; dose 2.3 μg/plate
  Number of revertant colonies TA1537: 14
[3]; dose 6.9 μg/plate
  Number of revertant colonies TA1537: 20
[3]; dose 62 μg/plate
  Number of revertant colonies TA1537: 18
[3]; dose 185 μg/plate
  Number of revertant colonies TA1537: 15
[3]; dose 556 μg/plate
  Number of revertant colonies TA1537: 15
[3]; dose 1667 μg/plate
  Number of revertant colonies TA1537: 19
[3]; dose 5000 μg/plate
  Number of revertant colonies TA1537: 24
[4]; dose 2.3 μg/plate
  Number of revertant colonies TA98: 39
[4]; dose 6.9 μg/plate
  Number of revertant colonies TA98: 42
[4]; dose 21 μg/plate
  Number of revertant colonies TA98: 52
[4]; dose 62 μg/plate
  Number of revertant colonies TA98: 47
[4]; dose 185 μg/plate
  Number of revertant colonies TA98: 49
[4]; dose 556 μg/plate
  Number of revertant colonies TA98: 51
[4]; dose 1667 μg/plate
  Number of revertant colonies TA98: 57
[4]; dose 5000 μg/plate
  Number of revertant colonies TA98: 88
